From US20100233249A1, “CONTRACEPTIVE METHODS AND COMPOSITIONS RELATED TO PROTEASOMAL INTERFERENCE” (priority 2003, published 2010)
Entries after “also recorded” stand apart in the source; their conditions may differ. Where a SMILES comes first, the peptide text is derived from it. The star is where a group is joined. Cbz = O=C(OCc1ccccc1)*

Assays:
[1] = test system: zona-enclosed oocytes / boar spermatozoa; experiment: Porcine in vitro fertilization of zona-enclosed (zona-intact) oocytes with inhibitor or antibody in the fertilization medium; assay type: cell-based; details: for Monospermic (%) / Monospermic (number of oocytes) / Not fertilized (%) / Not fertilized (number of oocytes) / Polyspermic (%) / Polyspermic (number of oocytes): 10 uM in culture medium at the time of insemination, 20 h p.i.; for penetration of ZP: 100 uM concentration; for fertilization of zona-enclosed (zona-intact) oocytes: agent in fertilization medium during porcine IVF
[2] = test system: rat ova; details: Josefsberg et al., 2000; cited from earlier work
[3] = test system: ubiquitin-immuno-reactive ZP proteins; experiment: Western blotting / Coomassie staining of ubiquitin-immuno-reactive ZP proteins after IVF; assay type: cell-based, porcine; details: MG132 in fertilization medium; 6 h p.i.
Experimental: SDS-PAGE and Western blotting were carried out as generally described in Sambrook et al. (2001). Oocytes and zygotes were removed from culture at given time points, washed repeatedly in a protein-free TALP HEPES and 350 zygotes per group were boiled for 5 min in […] of loading buffer containing Tris (50 mM), β-mercaptoethanol (5%), glycerol (10%), SDS (2%) and PMSF (100 mM). Boar sperm proteins were extracted by grinding in extraction buffer (50 mM Tris, 20 mM imidazole, 1 mM EDTA, 5 mM benzamidine HCl, 5 μg/ml leupeptine, 1 μg/ml pepstatin A, 100 mM PMSF and 0.1% SDS), centrifuged at 17000×g for 30 min. β-mercaptoethanol, glycerol, SDS were added to the supernatants, achieving the final concentrations as that of the loading buffer. Human spermatozoa were boiled with loading buffer, followed by centrifugation at 25000×g for 30 min to remove the DNA pellet. […] After incubating overnight with the primary anti-ubiquitin antibodies and then with the appropriate biotin-conjugated secondary antibodies, the signals were detected with alkaline phosphatase reaction, using Vectastain ABC-AmP kit (Vector Lab Inc., Burlingame, Calif.).
Next, it was determined whether some of the ubiquitin-immuno-reactive ZP substrates undergo degradation after sperm binding to ZP, and whether such degradation can be prevented by proteasomal inhibitors. […]

[4] = test system: boar spermatozoa bound to the zona pellucida; experiment: Sperm-zona binding and sperm acrosomal status (DAPI, c-Yes immunofluorescence); assay type: cell-based, porcine
Experimental: To evaluate sperm-zona binding and sperm acrosomal status, zona-enclosed oocytes were fixed and the tyrosine kinase c-Yes, known to be present in the subacrosomal and outer acrosomal layer of perinuclear theca in spermatozoa with an intact acrosome (Leclerc and Goupil, 2002) was evaluated by immunofluorescence. The number of spermatozoa bound to the zona pellucida was determined after staining with DAPI. Five eggs per group were counterstained with an antibody against the acrosomal tyrosine kinase c-Yes (see Immunofluorescence) and DAPI and photographed at 60× magnification. ZP-bound acrosome-reacted and acrosome intact spermatozoa were counted and the values were expressed as a percent (%) of acrosome intact sperm/egg. Treatment results were compared by χ2 test and by general linear model procedures of SAS 8.2.
It was first observed that proteasomal inhibitors lactacystin and MG132 prevent fertilization in the course of studies aimed at confirming the proteasomal route of degradation of the paternal, sperm mitochondria inside the porcine zygote (Sutovsky et al., 2003). This study was followed up on by experiments designed to determine at which step of fertilization the inhibitors exert the block. […] The experiment was repeated four times with consistent results. […] To rule out that MG132 affects sperm viability, sperm-zona binding or acrosomal exocytosis, oocytes fertilized in the presence of 10 μM MG132 were fixed with their zona pellucida intact at 20 h p.i. Sperm heads bound to ZP were detected with DAPI and intact acrosomes were detected by antibodies against tyrosine kinase c-Yes, known to reside in the sub-acrosomal and outer acrosomal layer of perinuclear theca of acrosome-intact spermatozoa (FIG. 1 A-D). Since the spermatozoa in this experiment were pre-labeled with MitoTracker CMTM Ros, the sperm mitochondrial sheaths were rendered detectable inside the fertilized oocytes. […] However, there was no significant difference in the number of sperm bound per egg (99.3 with MG132 vs. 93.3 in control) or in the percentage of acrosome-intact, zona-bound sperm (2.01% with MG132 vs. 2.14% in control).

[5] = test system: bovine ova / bull spermatozoa; experiment: Bovine in vitro fertilization; assay type: cell-based
Experimental: The effect of proteasomal interference on the ability of bull spermatozoa to fertilize bovine ova was analyzed in vitro. Specific, fully reversible proteasomal inhibitor MG132 (100 μM) was added to fertilization medium at the time of insemination. This allowed fertilization to occur only in 3 out of […] ova examined at 20 h post insemination (2.8% rate of fertilization; Table 2). […] Proteasomes in pronuclei were detected with an antibody against α-type and β-type proteasomal subunits. DNA was visualized with DAPI (blue).
However, several groups of ova were preincubated with 100 μM MG132 for 2 hours prior to fertilization to rule out that MG132 could block or hinder fertilization by a direct effect on zona pellucida oolemma or ooplasm, as opposed to an inhibitory effect on sperm acrosome-borne proteasomes (Sutovsky et al., 2003a, b).

[6] = test system: pronuclei of bovine ova; experiment: Pronuclear development in bovine fertilized ova (immunofluorescence); assay type: cell-based
Experimental: The ubiquitin-proteasome pathway was until recently ascribed solely to cytoplasmic compartment. The presence and proteolytic activity of proteasomes in the nuclear compartment of […] was analyzed. Specific immune sera were used for the immunolocalization of proteasomal subunits LMP2, α/β and MECL1 in bovine pronuclear zygotes at various stages of pronuclear development. […] Proteasomal subunits started to infiltrate both male and female pronuclei at the initial stage of sperm nuclear decondensation. Both the male and the female pronuclei become occupied by proteasomes prior to reaching full size and apposition. High density of proteasomes was observed inside the apposed, full-sized pronuclei in both monospermic and polyspermic ova, and in cases of asynchronous pronuclear development. […] The sperm tail was visualized by the preincubation of spermatozoa prior to fertilization with a vital mitochondrial dye MitoTracker Green FM (green).
Such fertilization in presence of low concentration MG132 allowed the observation of the effects of proteasomal interference on pronuclear development. […] DNA was stained with blue fluorecent DAPI and sperm tails inside the fertilized ova were identified by the presence of green fluorescence, which accumulated in sperm mitochondrial sheath during sperm preincubation with MitoTracker GreenFM. […]

[7] = test system: bovine ova / bull spermatozoa; experiment: Bovine in vitro fertilization; assay type: cell-based; details: 10 μM MG132
[8] = test system: zona-free oocytes / boar spermatozoa; experiment: Porcine in vitro fertilization of zona-free oocytes; assay type: cell-based
Experimental: IVF was performed using zona-enclosed and zona-free (ZF or ZP−) oocytes in the presence or absence of MG132 and antibody MECL-1. Removal of the zona pellucida was accomplished by a brief (30 sec) exposure of oocytes to 0.5% pronase (Sigma, St. Louis, Mo.). Oocytes were washed extensively and ZF oocytes were allowed to recover from enzymatic treatment for 1 h prior to insemination. For IVF, ZF oocytes were co-incubated with 1×10^5 sperm/ml while zona-enclosed/zona-intact (ZI or ZP+) oocytes were treated as described above. Oocytes were fixed 12 h post insemination (p.i.) in 25% acetic acid/ethanol and stained with 1% orcein to determine the incidence of fertilization. In some experiments, oocytes were evaluated by immunofluorescence microscopy, detecting the presence of pronuclei and sperm tails in the zygotic cytoplasm.
To ascertain that the fertilizing capability of boar spermatozoa was not diminished by some non-specific effect of proteasomal inhibitors on the sperm motility or sperm ability to fuse with the oocyte plasma membrane, porcine oocytes were stripped of ZP and fertilized with acrosome-intact spermatozoa in the presence or absence of MG132 (FIG. 5 A-H). […] MG132 had no effect on the fertilization of zona-intact oocytes when either oocytes or spermatozoa were pre-incubated with it and used for insemination after extensive washing.

[9] = 10 μM MG132, 20 hours post insemination
[10] = 100 μM at fertilization, 20 h post insemination
[11] = 100 μM at fertilization, 20 h post insemination, listed as MG 132
[12] = 100 μM ovum preincubation 2 h, IVF in absence of MG132

CC(=O)N[C@@H](CSC(=O)[C@]1([C@@H](O)C(C)C)NC(=O)[C@H](C)[C@@H]1O)C(=O)O [lactacystin]
Monospermic (%) [1]: 65% | Monospermic (number of oocytes) [1]: 13 | Not fertilized (%) [1]: (25%) | Not fertilized (number of oocytes) [1]: 5 | Polyspermic (%) [1]: 10% | Polyspermic (number of oocytes) [1]: 2 | Monospermic (%) ([1]; listed as Lactacystin): (65%) | Polyspermic (%) ([1]; listed as Lactacystin): (10%) | fertilization at threshold concentration ([1]; 10 uM lactacystin): did not prevent fertilization | penetration of ZP [1]: completely inhibited | effect on fertilization rates ([1]; added at the time of insemination): dose-dependent effect | fertilization of zona-enclosed (zona-intact) oocytes [1]: completely prevented fertilization | block of fertilization ([1]; lactacystin at 100 μm concentration): 100%

CC(C)C[C@@H](C=O)NC(=O)[C@H](CC(C)C)NC(=O)[C@H](CC(C)C)NC(=O)OCc1ccccc1 [MG132, Z-Leu-Leu-Leu-CHO] (Cbz-Leu-Leu-Leu-aldehyde)
progression of meiosis and pronuclear development [2]: inhibited | degradation of ZP-contributed oocyte proteins after IVF [3]: effectively prevented | gamete viability, sperm-egg binding and sperm-acrosome reaction [4, 9]: does not impair | spermatozoa with intact acrosomes on an oocyte (FIG. 1C) [4, 9]: three | number of sperm bound per egg ([4]; 10 μM MG132, 20 h p.i.): 99.3 | percentage of acrosome-intact, zona-bound sperm ([4]; 10 μM MG132, 20 h p.i.): 2.01% | sperm-oocyte binding examined by light microscopy ([4]; ZP+/MG132+ zygotes used for western blotting): not affected | fertilization ([1]; 10 μM MG132, fixed at 20 h p.i.): 0% | Monospermic (number of oocytes) [1]: 0 | Not fertilized (%) [1]: (100%) | Not fertilized (number of oocytes) [1]: 19 | Polyspermic (number of oocytes) [1]: 0 | penetration of ZP [1]: completely inhibited | oocytes in which fertilization was prevented ([1]; MG132 added at the time of insemination, four trials): 100% | fertilization of zona-enclosed (zona-intact) oocytes [1]: completely prevented fertilization; also recorded: inhibited in vitro fertilization | fertilization of zona-intact oocytes after pre-incubation ([1]; oocytes or spermatozoa pre-incubated with MG132, extensive washing before insemination): had no effect | block of bovine fertilization ([5]; 100 μM MG132): completely | M-II/partheno (number of ova) ([5]; 100 μM at fertilization): 40 | Partheno (number of ova) ([5]; 100 μM at fertilization): 0 | Fertilized (%), rate of fertilization [5, 10]: 2.8% | Fertilized (number of ova) [5, 10]: 3 | Fertilized (%), rate of fertilization [5, 11]: (2.44%) | Fertilized (number of ova) [5, 11]: 1 | Fertilized (%), fertilization rate [5, 12]: 97.5% | Fertilized (number of ova) [5, 12]: 40 | M-II/partheno (number of ova) [5, 12]: 1 | Partheno (number of ova) [5, 12]: 0 | Fertilized (%), fertilization rate ([5]; 100 μM ovum preincubation 2 h, IVF in absence of MG132, listed as MG 132): (97.56%) | effect on fertilization or pronuclear development ([5]; preincubation of unfertilized ova with 100 μM MG132 for 2 h prior to IVF in absence of MG132): had no effect on fertilization or pronuclear development | anomalies in oocyte morphology ([5]; treatment during bovine IVF): Neither MG132 nor anti-MECL1 treatments were accompanied by identifiable anomalies | pronuclear development in fertilized ova ([6]; fertilized in presence of 10 μM MG132): Abnormal pronuclear development and premature chromosome condensation (PCC) was observed | import of proteasomal subunits into pronuclei ([6]; preincubation of ova with 100 μM MG132 prior to fertilization): had no effect | block of bovine fertilization [7]: inhibited the fertilization only partially | average fertilization rate ([7]; two separate trials): 38.2% | fertilization of zona-free oocytes ([8]; agent present during porcine IVF): had no effect | zona-free oocytes fertilized ([8]; in the presence or absence of MG132, most polyspermic): 92-96%
